Source: patent publication US9249125B2, “Pyrazole derivatives as p38 MAP inhibitors” (RESPIVERT LIMITED, priority 2012, dated 2016)

How the values were obtained:
[1] = system: Poly I:C-induced ICAM-1 expression in BEAS2B cells; test: Poly I:C-induced ICAM-1 expression in BEAS2B cells; format: cell-based; settings: Homo sapiens, BEAS-2B, read-out: Poly IC induced ICAM1 in BEAS2B IC50
Protocol: Poly I:C is used in these studies as a simple, RNA virus mimic. Poly I:C-Oligofectamine mixture (1 μg/mL Poly I:C, ±2% Oligofectamine, 25 uL) (Invivogen Ltd., San Diego, Calif., and Invitrogen, Carlsbad, Calif., respectively) is transfected into BEAS2B cells (human bronchial epithelial cells, ATCC). Cells are pre-incubated with final concentrations of test compounds for 2 hr and the level of ICAM1 expression on the cell surface is determined by cell-based ELISA. At a time point 18 hr after poly I:C transfection, cells are fixed with 4% formaldehyde in PBS (100 μL) and then endogenous peroxidase is quenched by the addition of washing buffer (100 μL, 0.05% Tween in PBS: PBS-Tween) containing 0.1% sodium azide and 1% hydrogen peroxide. Cells are washed with wash-buffer (3×200 μL). and after blocking the wells with 5% milk in PBS-Tween (100 μL) for 1 hr, the cells are incubated with anti-human ICAM-1 antibody (50 μL) (Cell Signaling Technology, Danvers, Mass.) in 1% BSA PBS overnight at 4° C.
The cells are washed with PBS-Tween (3×200 μL) and incubated with the secondary antibody (100 μL) (HRP-conjugated anti-rabbit IgG, Dako Ltd., Glostrup, Denmark). The cells are then incubated with of substrate (50 μL) for 2-20 min, followed by the addition of stop solution (50 μL, 1N H2SO4). The ICAM-1 signal is detected by reading and reading the absorbance at 450 nm against a reference wavelength of 655 nm using a spectrophotometer. The cells are then washed with PBS-Tween (3×200 μL) and total cell numbers in each well are determined by reading absorbance at 595 nm after Crystal Violet staining (50 μL of a 2% solution in PBS) and elution by 1% SDS solution (100 μL) in distilled water. The measured OD 450-655 readings are corrected for cell number by dividing with the OD595 reading in each well.

[2] = system: LPS-induced TNFα release in d-U937 cells; test: LPS-induced TNFα release in d-U937 cells; format: cell-based; settings: Homo sapiens, dU937, relative to 10 μg/mL BIRB796, read-out: LPS Induced Release of Cytokine in d-937 Cells TNFα REC50
Protocol: (§1) U937 cells, a human monocytic cell line, are differentiated into macrophage-type cells by incubation with PMA (100 ng/mL) for 48 to 72 hr. Cells are pre-incubated with final concentrations of test compound for 2 hr and are then stimulated with LPS (0.1 μg/mL) (from E. coli: O111:B4, Sigma) for 4 hr. The supernatant is collected for determination of TNFα and IL-8 concentrations by sandwich ELISA (Duo-set, R&D systems). […] The relative 50% effective concentration (REC50) is determined from the resultant concentration-response curve. The inhibition of IL-8 production is calculated at each concentration of test compound by comparison with vehicle control. […] (b) LPS-Induced TNFα/IL-8 Release in PBMC Cells

[3] = target: cSrc (Homo sapiens (Human), UniProt P12931); test: c-Src enzyme inhibition (FRET, Z-LYTE); format: biochemical
Chain of cSrc (P12931 whole entry, looked up): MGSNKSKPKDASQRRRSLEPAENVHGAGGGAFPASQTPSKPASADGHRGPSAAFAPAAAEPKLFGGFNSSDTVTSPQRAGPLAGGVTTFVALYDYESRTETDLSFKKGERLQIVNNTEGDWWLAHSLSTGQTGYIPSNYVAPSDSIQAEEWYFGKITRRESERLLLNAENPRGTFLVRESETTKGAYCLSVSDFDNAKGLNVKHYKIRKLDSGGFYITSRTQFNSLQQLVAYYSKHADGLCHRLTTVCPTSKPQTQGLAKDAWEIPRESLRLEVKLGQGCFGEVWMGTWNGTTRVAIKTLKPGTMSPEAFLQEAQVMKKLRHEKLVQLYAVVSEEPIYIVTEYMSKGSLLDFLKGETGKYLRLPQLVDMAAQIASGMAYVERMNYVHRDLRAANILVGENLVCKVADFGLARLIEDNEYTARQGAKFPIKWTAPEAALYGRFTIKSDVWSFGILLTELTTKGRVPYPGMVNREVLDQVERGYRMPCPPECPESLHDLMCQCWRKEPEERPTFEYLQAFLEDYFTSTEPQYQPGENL
Protocol: (§2) The enzyme inhibitory activities of compounds disclosed herein are determined by FRET using synthetic peptides labelled with both donor and acceptor fluorophores (Z-LYTE, Invitrogen Ltd., Paisley, UK).
(§3) The relevant enzyme (3000 ng/mL or 2000 ng/mL respectively, 2.5 μL) is incubated with the test compound (either 4 μg/mL, 0.4 μg/mL, 0.04 μg/mL, or 0.004 μg/mL, 2.5 μL each) for 2 hr at RT. The FRET peptides (8 μM, 2.5 μL), and appropriate ATP solutions (2.5 μL, 800 μM for c-Src, and 60 μM ATP for Syk) are then added to the enzymes/compound mixtures and incubated for 1 hr. Development reagent (protease, 5 μL) is added for 1 hr prior to detection in a fluorescence microplate reader (Varioskan® Flash, ThermoFisher Scientific).
(§4) In all cases, the site-specific protease cleaves non-phosphorylated peptide only and eliminates the FRET signal. Phosphorylation levels of each reaction are calculated using the ratio of coumarin emission (donor) over fluorescein emission (acceptor), for which low ratios indicate high phosphorylation and high ratios indicate low phosphorylation levels.

[4] = target: GSK3α (Homo sapiens (Human), UniProt P49840); test: GSK 3α enzyme inhibition (FRET, Z-LYTE); format: biochemical
Chain of GSK3α (P49840 whole entry): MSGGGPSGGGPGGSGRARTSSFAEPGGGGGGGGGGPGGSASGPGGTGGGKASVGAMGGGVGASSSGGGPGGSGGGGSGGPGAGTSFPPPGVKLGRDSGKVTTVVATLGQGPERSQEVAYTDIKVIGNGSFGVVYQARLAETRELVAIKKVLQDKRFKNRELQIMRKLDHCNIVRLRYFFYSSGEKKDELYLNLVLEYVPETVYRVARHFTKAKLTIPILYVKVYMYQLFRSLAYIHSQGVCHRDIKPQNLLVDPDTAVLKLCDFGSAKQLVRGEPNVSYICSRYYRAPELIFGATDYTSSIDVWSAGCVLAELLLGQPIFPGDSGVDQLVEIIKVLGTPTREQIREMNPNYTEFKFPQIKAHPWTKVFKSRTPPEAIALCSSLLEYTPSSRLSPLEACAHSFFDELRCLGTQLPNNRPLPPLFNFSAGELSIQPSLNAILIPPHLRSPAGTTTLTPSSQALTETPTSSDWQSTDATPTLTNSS
Protocol: as §2
The inhibitory activities of compounds of the invention against the GSK 3α enzyme isoform (Invitrogen), are evaluated by determining the level of activation/phosphorylation of the target peptide. The GSK3-α protein (500 ng/mL, 2.5 μL) is mixed with the test compound (2.5 μL at either 4 μg/mL, 0.4 μg/mL, 0.04 μg/mL, or 0.004 μg/mL) for 2 hr at RT. The FRET peptide (8 μM, 2.5 μL), which is a phosphorylation target for GSK3α, and ATP (40 μM, 2.5 μL) are then added to the enzyme/compound mixture and the resulting mixture incubated for 1 hr. Development reagent (protease, 5 μL) is added for 1 hr prior to detection in a fluorescence microplate reader (Varioskan® Flash, ThermoFisher Scientific).
as §4

[5] = target: p38 MAPKα (Homo sapiens (Human), UniProt Q16539); test: p38 MAPKα enzyme inhibition (FRET, Z-LYTE); format: biochemical
Chain of p38 MAPKα (Q16539 whole entry): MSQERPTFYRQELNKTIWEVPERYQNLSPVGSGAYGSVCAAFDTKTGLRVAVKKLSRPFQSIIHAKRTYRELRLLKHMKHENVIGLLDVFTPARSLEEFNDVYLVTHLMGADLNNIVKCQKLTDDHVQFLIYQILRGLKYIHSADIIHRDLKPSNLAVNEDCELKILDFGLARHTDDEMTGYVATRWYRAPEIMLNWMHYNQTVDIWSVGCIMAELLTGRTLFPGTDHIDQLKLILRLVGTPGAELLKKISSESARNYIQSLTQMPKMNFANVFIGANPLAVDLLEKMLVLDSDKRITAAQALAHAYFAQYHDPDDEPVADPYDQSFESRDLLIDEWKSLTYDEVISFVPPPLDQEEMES
Protocol: as §2
The inhibitory activities of test compounds against the p38 MAPKα isoform (MAPK14: Invitrogen), are evaluated indirectly by determining the level of activation/phosphorylation of the down-stream molecule, MAPKAP-K2. The p38 MAPKα protein (80 ng/mL, 2.5 μL) is mixed with the test compound (2.5 μL of either 4 μg/mL, 0.4 μg/mL, 0.04 μg/mL or 0.004 μg/mL) for 2 hr at RT. […] The mixture is incubated for 1 hr at RT. Development reagent (protease, 5 μL) is added for 1 hr prior to detection in a fluorescence microplate reader (Varioskan® Flash, ThermoFisher Scientific).
as §4

[6] = target: Syk (Homo sapiens (Human), UniProt P43405); test: Syk enzyme inhibition (FRET, Z-LYTE); format: biochemical
Protocol: as §2, §3, §4

[7] = system: LPS-induced IL-8 release in d-U937 cells; test: LPS-induced IL-8 release in d-U937 cells; format: cell-based; settings: Homo sapiens, dU937, read-out: LPS Induced Release of Cytokine in d-937 Cells IL-8 IC50
Protocol: as §1

[8] = system: d-U937 cells; test: Cell viability: MTT assay; format: cell-based, human; settings: 1 μg/mL
Protocol: Differentiated U937 cells are pre-incubated with each test compound (final concentration 1 μg/mL or 10 μg/mL in 200 μL media indicated below) under two protocols: the first for 4 hr in 5% FCS RPMI1640 media and the second in 10% FCS RPMI1640 media for 24 h. The supernatant is replaced with new media (200 μL) and MTT stock solution (10 μL, 5 mg/mL) is added to each well. After incubation for 1 hr the media are removed, DMSO (200 μL) is added to each well and the plates are shaken lightly for 1 hr prior to reading the absorbance at 550 nm. The percentage loss of cell viability is calculated for each well relative to vehicle (0.5% DMSO) treatment. Consequently an apparent increase in cell viability for drug treatment relative to vehicle is tabulated as a negative percentage.

EC50 [2]	IC50 [3]	IC50 [4]	IC50 [5]	IC50 [6]	IC50 [7]	Structure (SMILES)	IC50 [1]	MTT Assay Cell viability at time point in d-U937 cells 4 h [8]	MTT Assay Cell viability at time point in d-U937 cells 24 h [8]
0.4 nM	3 nM	1280 nM	18 nM	5 nM	3.4 nM	CC(C)c1cc(NC(=O)Nc2ccc(Oc3ccnc(Nc4ccc5[nH]ncc5c4)n3)c3ccccc23)n(-c2ccc(OCCN3CCOCC3)cc2)n1 [Example 69, 1-(4-((2-((1H-indazol-5-yl)amino)pyrimidin-4-yl)oxy)naphthalen-1-yl)-3-(3-isopropyl-1-(4-(2-morpholinoethoxy)phenyl)-1H-pyrazol-5-yl)urea]	8.1 nM	−ve (−ve and +ve indicate that the value is below and above respectively, the no significant effect threshold, defined as 30% inhibition at 1 μg/mL at the time point indicated.)	−ve (−ve and +ve indicate that the value is below and above respectively, the no significant effect threshold, defined as 30% inhibition at 1 μg/mL at the time point indicated.)
1.4 nM	< 1 nM	589 nM	18 nM	2 nM	1.2 nM	Cc1cc(Nc2nccc(Oc3ccc(NC(=O)Nc4cc(C(C)(C)C)nn4-c4cccc(CN5CCCC5=O)c4)c4ccccc34)n2)cc2cn[nH]c12 [Example 10, 1-(3-(tert-Butyl)-1-(3-((2-oxopyrrolidin-1-yl)methyl)phenyl)-1H-pyrazol-5-yl)-3-(4-((2-((7-methyl-1H-indazol-5-yl)amino)pyrimidin-4-yl)oxy)naphthalen-1-yl)urea]	3.9 nM	−ve (−ve and +ve indicate that the value is below and above respectively, the no significant effect threshold, defined as 30% inhibition at 1 μg/mL at the time point indicated.)	−ve (−ve and +ve indicate that the value is below and above respectively, the no significant effect threshold, defined as 30% inhibition at 1 μg/mL at the time point indicated.)
1.7 nM		> 16000 nM		182 nM	5 nM	Cc1ccc(-n2nc(C(C)(C)C)cc2NC(=O)Nc2ccc(Oc3ccnc(Nc4cccc5[nH]ncc45)n3)c3ccccc23)cc1 [Example 21]	3 nM	−ve (−ve and +ve indicate that the value is below and above respectively, the no significant effect threshold, defined as 30% inhibition at 1 μg/mL at the time point indicated.)	−ve (−ve and +ve indicate that the value is below and above respectively, the no significant effect threshold, defined as 30% inhibition at 1 μg/mL at the time point indicated.)
1.7 nM		> 1600 nM	79 nM		0.6 nM	Cc1ccc(-n2nc(C(C)(C)C)cc2NC(=O)Nc2ccc(Oc3ccnc(Nc4cnc5[nH]ccc5c4)n3)c3ccccc23)cc1 [Example 32, 1-(4-((2-((1H-pyrrolo[2,3-b]pyridin-5-yl)amino)pyrimidin-4-yl)oxy)naphthalen-1-yl)-3-(3-(tert-butyl)-1-(p-tolyl)-1H-pyrazol-5-yl)urea]		−ve (−ve and +ve indicate that the value is below and above respectively, the no significant effect threshold, defined as 30% inhibition at 1 μg/mL at the time point indicated.)	−ve (−ve and +ve indicate that the value is below and above respectively, the no significant effect threshold, defined as 30% inhibition at 1 μg/mL at the time point indicated.)
